Common to all, as to assay: MIC, two-fold plate dilution method
Format in all cases: cell-based

For one assay, the system named is S. aureus ATTC 25923. Details: unit not given here. The note with it: S. aureus ATTC 25923, Gram-positive; Muener-Hinton medium. An excerpt:
(§1) Two-fold plate dilution method is used for determination of activity, with Muener-Hinton medium (DIFCO) as the culture medium and clinically isolated pathogenic strain, quality control strain and standard strain (provided by National Institute for the Control of Pharmaceutical and Biological Products) as test strains.

In the next assay the test system is S. pneumoniae 98. Details: unit not given here. The note with it: S. pneumoniae 98, Gram-positive; Muener-Hinton medium.
Description: (§2) . The pharmaceutically acceptable salts or hydrates thereof have the same antibacterial activity.
as §1

A further assay deals with E. coli 26. The note with it: E. coli 26, Gram-negative; Muener-Hinton medium.
Description: as §2, §1

A further assay concerns K. pneumoniae 14. Details: unit not given here. The following applies: K. pneumoniae 14, Gram-negative; Muener-Hinton medium.
Description: as §2, §1

In another assay the test system is E. coli ATTC 25922. Also noted: unit not given here. The following applies: E. coli ATTC 25922, Gram-negative; Muener-Hinton medium.
Description: as §2, §1

The next assay has as its system S. pneumoniae 70. Details: unit not given here. The following applies: S. pneumoniae 70, Gram-positive; Muener-Hinton medium.
Description: as §2, §1

For another assay, the system named is K. pneumoniae 7. The note with it: K. pneumoniae 7, Gram-negative; Muener-Hinton medium.
Description: as §2, §1

In the next assay the test system is Enterococcus 755. The note with it: Enterococcus 755, Gram-positive; Muener-Hinton medium.
Description: as §2, §1

As to `Cl.O=C(O)c1cn(C2CC2)c2c(OC(F)F)c(N3C[C@@H]4CCCN[C@@H]4C3)c(F)cc2c1=O` (racemic) [Embodiment 15, 1-Cyclopropyl-8-difluoromethoxyl-7-[cis-2,8-diazabicyclo[4,3,0]nonane-8-yl]-6-fluoro-1,4-dihydro-4-oxoquinoline-3-carboxylic acid hydrochloride], the MIC with S. aureus ATTC 25923 and with S. pneumoniae 98 was 0.12 each time.

With `Nc1c(F)c(N2C[C@@H]3CCCN[C@@H]3C2)c(OC(F)F)c2c1c(=O)c(C(=O)O)cn2C1CC1` (relative stereo) [Embodiment 21, 5-Amino-1-cyclopropyl-8-difluoromethoxyl-7-(cis-2,8-diazabicyclo[4,3,0]nonane-8-yl)-6-fluoro-1,4-dihydro-4-oxoquinoline-3-carboxylic acid], the MIC in the assay with E. coli 26 was less than 0.00 g/mL.

For the molecule `Cl.O=C(O)c1cn(C2CC2)c2c(OC(F)F)c(N3C[C@@H]4CCCN[C@@H]4C3)c(F)cc2c1=O` [Embodiment 13, 1-cyclopropyl-8-difluoromethoxyl-7-[(1S,6S)-2,8-diazabicyclo[4,3,0]nonane-8-yl]-6-fluoro-1,4-dihydro-4-oxoquinoline-3-carboxylic acid hydrochloride], the MIC with K. pneumoniae 14 is 0.01; against S. pneumoniae 98, 0.01; in the assay with E. coli ATTC 25922 it was 0.01; in the assay with S. pneumoniae 70, 0.12; against E. coli 26 it was 0.01 g/mL; in the assay on K. pneumoniae 7, 0.01 g/mL.

On to `Cl.O=C(O)c1cn(C2CC2)c2c(OC(F)F)c(N3C[C@H]4CCCN[C@H]4C3)c(F)cc2c1=O` [Embodiment 14, 1-cyclopropyl-8-difluoromethoxyl-7-[(1R,6R)-2,8-diazabicyclo[4,3,0]nonane-8-yl]-6-fluoro-1,4-dihydro-4-oxoquinoline-3-carboxylic acid hydrochloride], for which the MIC in the assay on S. pneumoniae 98 and against E. coli ATTC 25922 was 0.01 in each case.

As to `Cl.Nc1c(F)c(N2C[C@@H]3CCCN[C@@H]3C2)c(OC(F)F)c2c1c(=O)c(C(=O)O)cn2C1CC1` [Embodiment 17, 5-amino-1-cyclopropyl-8-difluoromethoxyl-7-[(1S,6S)-2,8-diazabicyclo[4,3,0]nonane-8-yl]-6-fluoro-1,4-dihydro-4-oxoquinoline-3-carboxylic acid hydrochloride], the MIC against K. pneumoniae 14 amounted to 0.01; in the assay on S. pneumoniae 98, 0.01; against E. coli ATTC 25922 it was 0.01; against S. pneumoniae 70, 0.01; with Enterococcus 755, 0.01 g/mL; in the assay on E. coli 26, 0.01 g/mL. This molecule displayed an MIC in the assay on K. pneumoniae 7 of 0.01 g/mL.

As for `Cl.Nc1c(F)c(N2C[C@H]3CCCN[C@H]3C2)c(OC(F)F)c2c1c(=O)c(C(=O)O)cn2C1CC1` [Embodiment 18, 5-Amino-1-cyclopropyl-8-difluoromethoxyl-7-[(1R,6R)-2,8-diazabicyclo[4,3,0]nonane-8-yl]-6-fluoro-1,4-dihydro-4-oxoquinoline-3-carboxylic acid hydrochloride], the MIC against K. pneumoniae 14 is given as 0.01; against S. pneumoniae 98, 0.12; in the assay on E. coli ATTC 25922, 0.01; in the assay on E. coli 26, 0.01 g/mL; in the assay with K. pneumoniae 7, 0.01 g/mL.

The values above are taken from patent US20070219231A1, “Quinolonecarboxylic acid compounds, preparation methods and pharmaceutical uses thereof” (priority 2005, published 2007).
